The series can be described thus: Binary mixtures of the ε-modification with the α-, β- or γ-modification in methanol and acetone (relative thermodynamic stability). The series is classed as physicochemical.

For `CO/N=C(\C(=O)N[C@@H]1C(=O)N2C(C(=O)OC(C)OC(C)=O)=C(COC(N)=O)CS[C@H]12)c1ccco1` (stereo partly shown) [ε-modification, cefuroximaxetil], the “thermodynamic stability relative to the other crystalline modifications” value is given as “more stable than the α-, β- or γ-modification”.

For the origin of these results see US20090233899A1, “Crystalline Modification of Cefuroximaxetil” (Gruenenthal GmbH, priority 2006, published 2009).
